Laboratory results reported in patent publication US8841422B2, “Human androgen receptor alternative splice variants” (University of Maryland, Baltimore, priority 2008, dated 2014).

Experiments:
AR = type: cell-based, human; details: LNCaP cells
Description: (H) LNCaP cells were infected with (+) or without (−) the lentivirus encoding AR shRNA (shAR) as described previously. At 6 hr postinfection, the cells were transfected with ARR2-Luciferase reporter along with AR3 or the codon-switched wild-type AR expressing vector (ARcs).
Briefly, cells grown in 24-well plates were transiently transfected with different plasmid constructs using LipofectAM1NE 2000 (Invitrogen) for LNCaP cells and FuGENE HI) (Roche) for COS-1 cells following the manufacturer's instruction. […] Dual-Luciferase assays were performed according to the protocol from the manufacturer (Promega).

80 kD ARs = test: Western blot with anti-AR after AR shRNAs in CWR-R1 cells; type: cell-based, human; details: 48 hr post infection
Description: FIGS. 1A-H: Cloning of novel alternative splice AR isoforms. (A) Presence of the short forms of AR in prostate cancer cells. Total cell lysates of different prostate cancer cells were blotted with anti-AR (441) antibody (upper) and anti-Actin antibody (lower). (B) Selective knockdown of AR long/short forms by AR shRNAs. CWR-R1 cells were infected with the lentivirus encoding AR shRNAa, AR shRNAb, and AR shRNAc (shARa, shARb and shARc) targeting different exons of AR as indicated in (D). At 48 hr post infection, the total cell lysates were subjected to western blot with anti-AR antibody. The same blot was stained with Coomassie Blue to show the protein loading (right panel). (C) Presence of AR isoform transcripts in CWR-R1 cells. Total RNA was isolated from CWR-R1 cells and reverse transcribed. The primer derived from AR shRNAc sequence was used to perform a rapid amplification of cDNA 3′-end (3′-RACE) with the RACE oligo-dT primer or a control primer. (D) Schematic structure of the human AR splice variants. The hatched cassettes stand for the cryptic exons. Solid thick lines represent the transcribed sequences. (E) Expression of AR isoforms in prostate cancer cells. The relative expression levels of AR, AR3, AR4 and AR5 were quantified using real-time PCR with the isoform specific primer pair sets described in Methods (left panel). The AR level in LNCaP cells was arbitrarily set as 1. The expression levels of AR3 in LNCaP and C-8 1 cells were further plotted with a higher resolution. *p<0.05 (right panel). (F) Transcriptional activity of AR isoforms. COS-1 cells were transfected with ARR.2-luciferase reporter gene together with AR, AR3, AR4 and AR5 expression vector. At 24 hr posttransfection, the cells were lysed and the luciferase activity was measured. The data were expressed as relative promoter activity, the changes of luciferase activity relative to the untreated control (arbitrarily set as 1). (G) COS-1 cells were transfected with ARR2-Luciferase reporter along with increasing doses of AR3 or AR expressing vector. […]

CWR-R1 xenograft = test: In vivo tumor growth in xenograft model, castrated male nude mice; details: CWR-R1 cells infected 48 hr before s.c. injection
Description: (§1) FIGS. 4A-D: AR3 promotes androgen-independent growth of prostate cancer cells. LNCaP cells were infected with lentivirus encoding AR3 expression construct (AR3) or the control vector. After 2-week culture in androgen-depleted condition, the cells were visualized by Coomassie Blue staining (A). At 48 hr post infection, the cells were injected into the castrated SCID mice and the growth of the tumor cells were monitored weekly. The result represent the mean tumor volume±SE (n=5 mice/group), *p<0.05 Inset, Western blots of anti-AR3 and anti-AR of the LNCaP xenograft tumor lysates (B). CWR-R1 and 22Rv1 cells were infected with lentivirus encoding AR3 shRNA-1 (shAR3) or control shRNA (shCon). After 2 weeks culture in androgen-depleted condition, the cells were visualized by Coomassie Blue staining (C). At 48 hr postinfection, the cells were injected into the castrated male nude mice. The growth of the tumors was monitored weekly. The result represents the mean tumor volume±SE (n=5 mice/group), *p<0.05 (D). […]
(§2) In vitro cell growth assay and In vivo tumor growth in xenograft models LNCaP, CWR-R1 and 22Rv1 cells were infected with the lentiviruses bearing the shRNA sequences and the AR3 expression constructs as indicated. […] The volumes of the tumors formed on both sides were measured weekly and calculated by using the formula: 0.5236×r1^2×r2 (r1<r2). […]

22Rv1 xenograft = test: as above; details: 22Rv1 cells infected 48 hr before s.c. injection
Description: as §1, §2

22Rv1 cells = test: In vitro cell growth assay in androgen-depleted condition; type: cell-based, human; details: 22Rv1, 2 weeks culture, Coomassie Blue staining
Description: as §1, §2

CWR-R1 cells = test: as above; type: cell-based, human; details: CWR-R1, 2 weeks culture, Coomassie Blue staining
Description: as §1, §2

## C[C@]12CCC(=O)C[C@@H]1CC[C@@H]1[C@@H]2CC[C@]2(C)[C@@H](O)CC[C@@H]12 [DHT]
AR
  activity of endogenous AR or codon-switched wild-type AR (luciferase reporter): induced

## CC(O)(CS(=O)(=O)c1ccc(F)cc1)C(=O)Nc1ccc(C#N)c(C(F)(F)F)c1 (stereo not drawn) [casodex]
AR
  activity of endogenous AR or codon-switched wild-type AR (luciferase reporter): blocked

## shARa: shRNA specific for human AR gene, lentiviral pLKO.1-puro vector from Sigma, targeting Exon 8, SEQ ID NO: 10 (CCGGCCTGCTAATCAAGTCACACATCTCGAGATGTGTGACTTGATTAGCAGGTTTTT)
80 kD ARs
  knock-down of 80 kD ARs: barely affected

## shARb: shRNA specific for human AR gene, lentiviral pLKO.1-puro vector from Sigma, targeting Exon 5, SEQ ID NO: 11 (CCGGCACCAATGTCAACTCCAGGATCTCGAGATCCTGGAGTTGACATTGGTGTTTTT)
80 kD ARs
  knock-down of 80 kD ARs: barely affected

## shARc: shRNA specific for human AR gene, lentiviral pLKO.1-puro vector from Sigma, targeting the 1st Exon, SEQ ID NO: 12 (CCGGCGCGACTACTACAACTTTCCACTCGAGTGGAAAGTTGTAGTAGTCGCGUTTT)
80 kD ARs
  knock-down of 80 kD ARs: efficiently knocked down

B1: shAR3-1: lentivirus encoded shRNA specific for AR3 isoform, made using SEQ ID NOS: 13 and 14 (nucleic acid)
chain 1: TGTAATAGTGGTTACCACTCTTCAAGAGAGAGTGGTAACCACTATTACTTTTTTTTC
chain 2: TCGAGAAAAAAAAGTAATAGTGGTTACCACTCTCTCTTGAAGAGTGGTAACCACTATTACA
CWR-R1 xenograft
  tumor growth in castrated nude mice: attenuated their growth
22Rv1 xenograft
  tumor growth in castrated nude mice: attenuated their growth
22Rv1 cells
  cell growth in androgen-depleted medium: attenuated their growth
CWR-R1 cells
  cell growth in androgen-depleted medium: attenuated their growth
